{
  "source": "patent US8889714B2",
  "about": "“3,4-substituted piperidine derivatives as renin inhibitors” (Actelion Pharmaceuticals Ltd., priority 2008, dated 2014)",
  "key": {"[1]": {"test_system": "female double transgenic rats (transgenic for human renin and angiotensin)", "assay": "Telemetry of mean arterial blood pressure after oral vs transdermal delivery in double transgenic rats", "format": "in vivo, rat", "conditions": "for ABC36h: area between curves of MAP", "procedure": "Female double transgenic rats (rats transgenic for human renin and […] (see, e.g., Bohlender et al., J Am Soc Nephrol 11:2056 (2000)) were developed. All animals were maintained under identical conditions and had free access to normal pelleted rat chow and water. Rats were initially treated with enalapril (1 mg/kg/day), starting 3 weeks after birth and during 9 weeks. Telemetry transmitters are implanted within 2 to 4 weeks after cessation of enalapril treatment. After approximately two weeks following cessation of enalapril treatment, the double transgenic rats are hypertensive with mean arterial blood pressures in the range of 160-170 mmHg.\nTransmitter implantation—The rats were anesthetized using isoflurane (via inhalation, 2-3%) The pressure transmitter was implanted under aseptic conditions into the peritoneal cavity with the sensing catheter placed in the descending aorta below the renal arteries pointing upstream. The transmitter was sutured to the abdominal musculature, the skin closed, and the rats were individually housed in a cage, placed on a telemetry receiver pad to enable collection of the blood pressure data during recovery from anesthesia and thereafter. The rats were single-caged for the duration of the recording of telemetry data.\nTelemetry System—Telemetry units were obtained from Data Sciences International (DSI, St. Paul, Minn.). […] The tip of the catheter was filled with a viscous gel that prevents blood reflux. The implants (length=2.5 cm, diameter=1.2 cm) weighed 9 g and have a typical battery life of 6 months. A receiver platform (RPC-1, DSI) connected the radio signal to digitized input that was sent to a dedicated personal computer. Arterial pressures were calibrated by using an input from an ambient-pressure reference (APR-1, DSI). Systolic, mean and diastolic blood pressure was expressed in millimeter of mercury (mmHg).\nTelemetry data analysis—Signals received by the receivers were digitized for 10 seconds every 5 minutes, at 500 Hz. From this signal, mean arterial pressure (MAP), systolic and diastolic blood pressure (SBP and DPB), pulse pressure (PP), heart rate (HR) and activity (ACT) were derived. A one-hour moving average of the data was then performed by the DSI analysis software. Data were then exported to an Excel template for the calculation of group statistics, areas between curves (ABC), maximal effect and duration of MAP reduction.\nDrug administration—For oral delivery, double transgenic rats with implanted pressure transmitters were dosed by oral gavage with a single bolus of vehicle (0.5% methocel; 5 ml/kg) or of the test substance (30 mg/5 ml/kg) (n=5 per group). After dosing, the rat was returned to his cage. Blood pressure data were collected up to 5 days after oral dosing.\n(§1) For transdermal delivery, double transgenic rats with implanted pressure transmitters were dosed with a single application on the shaved skin of the rat of vehicle (250 μl of 100% DMSO; n=4) or of the test compound (10 mg in 250 μl of 100% DMSO, i.e. 33 mg/kg; n=5). The rat was lightly sedated under 2.5% isoflurane anesthesia, and its back was shaved over a 4 cm^2 area. The animal was returned to his cage to recover from anesthesia. Twenty-four hours later, the rat was lightly sedated under 2.5% isoflurane anesthesia, and the shaved area disinfected with 3 passes of ethanol.\nAfter evaporation of the ethanol, a volume of 250 μl of 100% DMSO only, or of the compound dissolved in a 100% DMSO solution was applied over the shaved area using a micropipette. After complete evaporation of the DMSO solution (within 5 min after application), an occlusive transparent, waterproof film (OpSite) was taped to the back of the animal over the shaved area, and a jacket was fitted on the animal. Isoflurane inhalation was stopped, and the animal individually caged for telemetry data collection. Blood pressure data were collected up to 5 days after application of the compound/DMSO solution."}, "[2]": {"assay": "Test substance levels / bioavailability (AUC) in systemic circulation of telemetrized dTG rats", "format": "in vivo", "conditions": "double transgenic (dTG), rat, T24h, read-out: AUC24h"}, "[3]": {"target": "T1, Plasma renin activity (PRA) (Homo sapiens, UniProt P00797)", "T1 construct": "from tissue; host or cells: plasma of female double transgenic rats (human renin and angiotensinogen transgenes)", "T1 sequence (P00797 67-406)": "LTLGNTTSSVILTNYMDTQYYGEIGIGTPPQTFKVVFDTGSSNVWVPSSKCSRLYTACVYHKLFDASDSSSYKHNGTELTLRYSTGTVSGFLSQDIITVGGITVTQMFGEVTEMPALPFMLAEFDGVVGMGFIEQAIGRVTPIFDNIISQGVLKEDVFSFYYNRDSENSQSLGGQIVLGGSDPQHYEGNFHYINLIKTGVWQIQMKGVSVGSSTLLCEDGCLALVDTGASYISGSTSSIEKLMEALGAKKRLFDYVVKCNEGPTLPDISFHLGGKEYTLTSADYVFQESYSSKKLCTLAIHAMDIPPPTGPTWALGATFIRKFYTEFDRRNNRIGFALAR", "assay": "Plasma renin activity (PRA) inhibition in dTG rats after TD delivery", "format": "in vivo, rat", "conditions": "TD 10 mg in DMSO (33 mg/kg); PRA at T4h vs T0h", "procedure": "as §1\nA blood sample (0.3 ml) was taken by tail bleed or jugular iv in the telemetrized dTGs, at T0h, T4h and T24h after TD delivery to determine test substance levels and bioavailability (estimated as area under the curve, or AUC) of the active substance in systemic circulation. Plasma renin activity (PRA) was also measured at T0h and T4h. The effect of the test substance on PRA is expressed as the percentage of inhibition of PRA at T4h vs T0h."}, "[4]": {"target": "T2, Human recombinant renin (Homo sapiens, UniProt P00797)", "T2 construct": "purchased Proteos", "T2 sequence (P00797 67-406)": "T1 sequence (P00797 67-406)", "assay": "Inhibition of human recombinant renin (buffer)", "format": "biochemical", "conditions": "100 pM renin, 50 mM MOPS pH 7.4, 37° C., 3 hours; read-out: Human Renin IC50 (buffer)", "procedure": "Fluorescence is measured at times 0 and 3 hours with a SpectraMax Gemini EM reader set at an excitation wavelength of 328 nm and at an emission wavelength of 388 nm. Background fluorescence at t=0 is subtracted from the measurement at t=3 hours. Inhibitory activity of the compounds is expressed as IC50."}, "[5]": {"target": "T3, recombinant renin in human plasma (Homo sapiens, UniProt P00797)", "T3 construct": "purchased Proteos", "T3 sequence (P00797 67-406)": "T1 sequence (P00797 67-406)", "assay": "Inhibition of renin in human plasma", "format": "biochemical", "conditions": "human EDTA plasma, 1 nM recombinant renin added, 37° C., 1 hour; read-out: Human Renin IC50 (plasma)", "procedure": "Human EDTA-collected plasma is rapidly thawed in warm water and centrifuged at 2900 g for 15 minutes at 4° C. The supernatant is collected and recombinant renin (Proteos) is added at a final concentration of 1 nM. […] The plate is incubated at 37° C. for 1 hour. […] Background fluorescence at t=0 is subtracted from the measurement at t=1 hour. Inhibitory activity of the compounds is expressed as IC50."}, "[6]": {"conditions": "PO, single oral gavage 30 mg/5 ml/kg in 0.5% methocel"}, "[7]": {"conditions": "TD, single application 10 mg in 250 μl 100% DMSO (33 mg/kg) on shaved skin"}},
  "note": "Like-named read-outs stand apart in the source and are kept apart here.",
  "data": [
    {"smiles": "COCCCc1cc(CN(C(=O)[C@H]2CNCC[C@@H]2c2ccn(C)c(=O)c2)C2CC2)cc(Br)c1C", "note": "(relative stereo) [test substance, trans-N-({3-Bromo-4-methyl-5-[3-(methyloxy)propyl]phenyl}methyl)-N-cyclopropyl-4-(1-methyl-2-oxo-1,2-dihydro-4-pyridinyl)-3-piperidinecarboxamide]", "values": [
      {"measurement": "duration of MAP reduction", "setting": "[1]; [6]", "value": 2, "unit": "days"},
      {"measurement": "max MAP decrease", "setting": "[1]; [6]", "value": 57, "unit": "mmHg"},
      {"measurement": "ABC36h", "setting": "[1]; [6]", "value": 1143, "unit": "mmHg * h"},
      {"measurement": "duration of MAP reduction", "setting": "[1]; [7]", "value": 1, "unit": "days"},
      {"measurement": "max MAP decrease", "setting": "[1]; [7]", "value": 30, "unit": "mmHg"},
      {"measurement": "ABC36h", "setting": "[1]; [7]", "value": 514, "unit": "mmHg * h"},
      {"measurement": "AUC(0-t)", "setting": "[2]; topical, TD 10 mg in DMSO (33 mg/kg), blood samples at T0h, T4h", "value": 2.9, "unit": "µM·h"},
      {"measurement": "AUC(0-t)", "setting": "[2]; PO 30 mg/kg, blood samples at T0, T6h", "value": 1.8, "unit": "µM·h"},
      {"measurement": "PRA inhibition at 4 h", "setting": "[3]", "value": 98, "unit": "%"}
    ]},
    {"smiles": "CCn1ccc([C@@H]2CCNC[C@H]2C(=O)N(Cc2cc(CCCOC)cc(OCCOC)c2)C2CC2)cc1=O", "note": "(relative stereo) [Example 12, trans-N-Cyclopropyl-4-(1-ethyl-2-oxo-1,2-dihydro-4-pyridinyl)-N-({3-{[2-(methyloxy)ethyl]oxy}-5-[3-(methyloxy)propyl]phenyl}methyl)-3-piperidinecarboxamide]", "values": [
      {"measurement": "IC50", "setting": "[4]", "value": 200, "unit": "nM"},
      {"measurement": "IC50", "setting": "[5]", "value": 460, "unit": "nM"}
    ]}
  ]
}
